One assay deals with serum TNF-α. Put plainly: Adjuvant induced arthritis model, serum TNF-α. Type of assay: in vivo, Sprague Dawley rats. As to conditions: AIA rats, daily intraperitoneal; Patuletin 25 mg/kg, indomethacin 5 mg/kg. Here is the method: (§1) All studies were carried out using Female Sprague Dawley (SD) rats weighing 150-250 gms. Animals were kept at 21±2° C. and on a 12-h light/dark cycle, received standardized pelleted diet and tap water. Experiments were performed under the ethical guidelines of the International Association for the study of pain in conscious animals. Each group contains 12 animals with randomly distributed weights into each treatment group.
(§2) Arthritis was induced by injecting freshly prepared 100 μL of 1 mg suspension of lyophilized Mycobacterium tuberculosis H37Ra (MT H37Ra; DIFCO Laboratories, Detroit, Mich., USA), subcutaneously at the rat tail base using sterile hypodermic needle. Inoculation was carried out under anesthesia with a combination of 20 mg/kg ketamine and 5 mg/kg xylazine, injected intraperitoneally. Compound and the reference drug were administered daily, intraperitoneally using sterile syringes. The positive control received vehicle (5% DMSO+PBS) or saline only; treatment groups received test compounds (25 mg/kg), whereas reference group received indomethacin (5 mg/kg). The doses of the test compounds were selected after preliminary dose finding studies. […]
(§3) The quantitative measurement of TNF-α and IL-1β was done in serum of all groups of animals including arthritic and non-arthritic using commercial ELISA assay kits (Abcam, USA) according to the manufacturer's instructions. […]

Another assay relates to serum IL-1β. As to the kind of experiment: Adjuvant induced arthritis model, serum IL-1β. As to conditions: AIA rats, daily intraperitoneal; Patuletin 25 mg/kg, indomethacin 5 mg/kg. Type of assay: in vivo, Sprague Dawley rats. The method, then: as §1, §2, §3
In a further assay the test system is serum nitric oxide. Put plainly: Adjuvant induced arthritis model, serum nitric oxide. Type of assay: in vivo, Sprague Dawley rats. As to conditions: AIA rats, daily intraperitoneal; Patuletin 25 mg/kg, indomethacin 5 mg/kg. Here is the method:
as §1
(§4) Arthritis was induced by injecting freshly prepared 100 μL of 1 mg suspension of lyophilized Mycobacterium tuberculosis H37Ra (MT H37Ra; DIFCO Laboratories, Detroit, Mich., USA), subcutaneously at the rat tail base using sterile hypodermic needle. […]
(§5) Peroxide (PO) and nitric oxide (NO), in serum were determined in the serum samples of both the normal and arthritic groups, using quantitative colorimetric assay kits, i.e., the Quantichrom ™ Nitric Oxide Assay Kit, and the Quantichrome™ Peroxide assay kit Diox-250 (BioAssay Systems, Hayward, Calif., USA). […] The samples were analyzed in duplicates using 96-well plate and the plate was read at 540 nm. The Quantichrome™ Peroxide assay kit Diox −250 system is an improved method which utilizes the oxidation of Fe^++ by peroxide present in the analyzed sample resulting in formation of purple complex that gives the accurate measure of peroxide level in the sample when read at 540-610 nm.

A further assay deals with serum peroxide. As to the kind of experiment: Adjuvant induced arthritis model, serum peroxide. In kind it is in vivo, Sprague Dawley rats. Conditions: AIA rats, daily intraperitoneal; Patuletin 25 mg/kg, indomethacin 5 mg/kg. Here is the method: as §1, §4, §5
The next assay relates to rheumatoid factor. Put plainly: Adjuvant induced arthritis model, serum RA factor. Type of assay: in vivo, Sprague Dawley rats. As to conditions: AIA rats, daily intraperitoneal; Patuletin 25 mg/kg, indomethacin 5 mg/kg. The method, then: as §1
Arthritis was induced by injecting freshly prepared 100 μL of 1 mg suspension of lyophilized Mycobacterium tuberculosis H37Ra (MT H37Ra; DIFCO Laboratories, Detroit, Mich., USA), subcutaneously at the rat tail base using sterile hypodermic needle. Inoculation was carried out under anesthesia with a combination of 20 mg/kg ketamine and 5 mg/kg xylazine, injected intraperitoneally. Compound and the reference drug were administered daily, intraperitoneally using sterile syringes. […]
Measurement of RA factor in rat serum was determined using Tina-quant RFII Kit (Roche Diagnostics, USA) and automated analyzers according to manufacturer's instructions. The test principle involves the reaction of latex bound heat inactivated IgG (antigen) with RF antibodies in the sample to form Ag/Ab complex resulting in agglutination which can be measured turbidimetrically.

In assay [1] the test system is knee joints of arthritic rats. As to the kind of experiment: Adjuvant induced arthritis model, histopathology of knee joints (H & E). Type of assay: in vivo, Sprague Dawley rats. Conditions: H & E staining. Here is the method: as §1
Arthritis was induced by injecting freshly prepared 100 μL of 1 mg suspension of lyophilized Mycobacterium tuberculosis H37Ra (MT H37Ra; DIFCO Laboratories, Detroit, Mich., USA), subcutaneously at the rat tail base using sterile hypodermic needle. Inoculation was carried out under anesthesia with a combination of 20 mg/kg ketamine and 5 mg/kg xylazine, injected intraperitoneally. Compound and the reference drug were administered daily, intraperitoneally using sterile syringes. The positive control received vehicle (5% DMSO+PBS) or saline only; treatment groups received test compounds (25 mg/kg), whereas reference group received indomethacin (5 mg/kg). The doses of the test compounds were selected after preliminary dose finding studies. The treatment was started on the same day after vaccination.
The animals were sacrificed at the end of the experiment and samples were taken from the knee joints. Sample fixation were done using 10% formalin following decalcification. The samples were then processed, embedded, cut, mounted and stained with hematoxylin and eosin (H & E) dye for microscopic evaluation.

Assay [2] deals with PHA activated T cells isolated from human peripheral blood. Put plainly: Thymidine incorporation T cell proliferation assay (PHA activated). As to conditions: 72 h. In kind it is cell-based. The method, then: Heparinized blood was obtained by vein puncture aseptically from healthy volunteers (25-38 years age). Blood (10 mL) was mixed with incomplete RPMI, layered on 5 mL of Lymphocyte separation medium and centrifuged at 400 g for 20 min at room temperature. Buffy layer was collected and mixed with incomplete RPMI and centrifuged at 4° C. for 10 min at 300 g. Cells were obtained after the RBCs (if any) lysis using hypotonic solution, and washed at 4° C. for 10 min at 300 g. The cells were then suspended in complete RPMI containing 5% FBS and their concentration was adjusted to 2×10^6 cells/mL for T-cell proliferation assay.
Cell proliferation assay was conducted through standard thymidine incorporation technique. Briefly, isolated T-cells from peripheral blood of healthy individuals were plated at a concentration of 2×10^6 cells/mL in a round bottom 96-well tissue culture plates. Cells were stimulated with 7.5 μg/mL of PHA. […] The plate was then incubated for 72 hours at 37° C. in 5% CO2 incubator. After 72 hours, cultures were pulsed with 0.5 μCi/well tritiated thymidine (Amersham Pharmacia Biotech), and further incubated for 18 h. Cells were harvested onto a glass fiber filters using cell harvester (Innotech, Dottikon, Switzerland). The level of the thymidine incorporated into the cells was measured by a liquid scintillation counter (LS 6500, Beckman Coulter, Fullerton, Calif., USA). Results were expressed as mean count per minute (CPM). The inhibitory activity of compounds on T-lymphocyte proliferation was calculated using the following formula: […]
On the technique in general: Incorporation of labelled thymidine or its analogues reports DNA synthesis.

A further assay deals with TNF-α production. Put plainly: TNF-α production from PMA differentiated, LPS activated THP-1 cells (ELISA). Type of assay: cell-based, human. Conditions: 4 h. The method, then:
The symbol * and δ represents the P≦0.03 and P≦0.006, respectively.
FIG. 2 depicts the effect of pentoxyfillin (PTX) on TNF-α production (pg/mL) Human monocytic leukemia THP-1 cells were differentiated and activated with 20 ng/mL of PMA and 50 ng/mL of LPS, respectively and incubated with different concentrations of PTX for 4h, the supernatant was analyzed for the level of TNF-α by ELISA. The symbol * represents P≦of 0.03.
THP-1 (human monocytic leukemia) cells were maintained in RPMI-1640 supplemented with 10% FBS, 2 mmol/L glutamine, 5.5 mmol/L glucose, 50 μmol/L mercaptoethanol, 1 mmol/L sodium pyruvate, and 10 mmol/L HEPES and incubated at 37° C. in 5% CO2. Cells were grown in […] culture flask until they attained 70% confluency. Cells were then plated in 24-well tissue culture plates at a concentration of 2.5×10^5 cells/mL. Cells were differentiated into macrophages using PMA at a final concentration of 20 ng/mL and further incubated at 37° C. in 5% CO2 environment for 24 h. […] After addition of the compound cells were then incubated for 4 h for TNF-α production and 18 h for IL-1β production at 37° C. in 5% CO2. The supernatants were harvested and analyzed for the level of TNF-α and IL-1β, by human TNF-α and IL-1β Duo set ELISA kits, and according to the manufacturer's instructions.
For orientation: An ELISA detects its analyte on a solid surface through an enzyme-linked reagent.

Assay [3] relates to ROS production from PMA activated RAW. 267 cells (murine macrophages). Put plainly: Lucigenin enhanced (myeloperoxidase independent) oxidative burst. Type of assay: cell-based. Conditions: lucigenin enhanced, PMA activated RAW. 267 cells. Here is the method: Intracellular effect was determined using human peripheral whole blood phagocytes and isolated neutrophils and from mice peritoneum macrophages, where luminol-enhanced chemillumenescence assay was applied. The effect on myeloperoxidase independent ROS production was determined using lucigenin on murine macrophages RAW.267 cells. […] Table 2. […] 267 cells (murine macrophages). DPI is used as standard drug. Reading presents mean±SD of three determinations.

Assay [4] has as its system ROS production from human peripheral whole blood phagocytes. As to the kind of experiment: Luminol enhanced chemiluminescence oxidative burst, whole blood. As to conditions: luminol enhanced, serum opsonized zymosan, read-out: Myeloperoxidase dependent Oxidative Burst (IC50 μg/mL) Whole blood. Type of assay: cell-based. Here is the method: (§6) Intracellular effect was determined using human peripheral whole blood phagocytes and isolated neutrophils and from mice peritoneum macrophages, where luminol-enhanced chemillumenescence assay was applied. The effect on myeloperoxidase independent ROS production was determined using lucigenin on murine macrophages RAW.267 cells.
(§7) Table 2. […] 267 cells (murine macrophages). DPI is used as standard drug. Reading presents mean±SD of three determinations.
(§8) Luminol enhanced chemiluminescence technique was applied to study the effect of compound on ROS from phagocytes, Using whole blood, neutrophil and macrophages Briefly, 25 μL diluted whole blood (1:50 dilution in sterile HBSS^++) or 25 μL of PMNs (1×10^6), or 25 μL of isolated macrophages (1×10^6) were incubated with 25 μL of compound in triplicates and using three different concentrations (1, 10 and 100 μg/mL) using white 96 wells plates. Wells received HBSS^++ and cells only without compound served as positive control. 25 μL of serum opsonized zymosan-A (SOZ), followed by 25 μL luminol (7×10^−5 M), was added to each well to maintain a volume of 100 μL/well. Plates were then incubated at 37° C. for 30 minutes in the thermostated chamber of the luminometer. Results were monitored as relative light unit (RLU) reading, with peak and total integral values set with repeated scans at 60 seconds intervals, and 1 second points measuring time.

Assay [5] deals with ROS production from human neutrophils. As to the kind of experiment: Luminol enhanced chemiluminescence oxidative burst, isolated neutrophils. Type of assay: cell-based. Conditions: Neutrophil, serum opsonized zymosan, read-out: Myeloperoxidase dependent Oxidative Burst (IC50 μg/mL) Neutrophils. The method, then:
as §6, §7
Heparinized blood was obtained by vein puncture aseptically, from healthy volunteers (25-38 years age). The buffy coat containing polymorhonuclear neutrophils (PMNs) was collected by dextran sedimentation, and cells were isolated after the LSM density gradient centrifugation. […]
as §8, with “Wells received HBSS^++ and cells only without compound served as positive control. 25 μL of serum opsonized zymosan-A (SOZ), followed by 25 μL luminol (7×10^−5 M), was added to each well to maintain a volume of 100 μL/well. Plates were then incubated at 37° C. for 30 minutes in the thermostated chamber of the luminometer.” left out

Assay [6] concerns ROS production from mice peritoneal macrophages. Put plainly: Luminol enhanced chemiluminescence oxidative burst, mice peritoneal macrophages. Type of assay: cell-based. As to conditions: Mus musculus, Peritoneal macrophage, serum opsonized zymosan, read-out: Myeloperoxidase dependent Oxidative Burst (IC50 μg/mL) Macrophages. The method, then:
as §6, §7
NMRI mice of 25 to 30 gm weight were injected aseptically with 1 mL of heat inactivated fetal bovine serum (FBS) in the peritoneum cavity, using sterile 1 mL syringe and mice were kept for further 72 h. […] Cells were counted and concentration was adjusted to 1×10^6/mL for chemiluminescence assay.
as §8, with “Wells received HBSS^++ and cells only without compound served as positive control. 25 μL of serum opsonized zymosan-A (SOZ), followed by 25 μL luminol (7×10^−5 M), was added to each well to maintain a volume of 100 μL/well. Plates were then incubated at 37° C. for 30 minutes in the thermostated chamber of the luminometer.” left out

Entries after “also recorded” stand apart in the source; their conditions may differ.

This is an account of results in patent publication US20150025131A1 (priority 2013, published 2015).

Regarding `COc1ccc2c(c1)c(CC(=O)O)c(C)n2C(=O)c1ccc(Cl)cc1` [Indomethacin, reference compound], the “level of TNF-α in serum versus arthritic control group” value in the assay on serum TNF-α was “marked decrease”. In addition, the “level of IL-1β in serum versus arthritic control group” value with serum IL-1β was “significant decrease; also recorded: marked decrease”. Moreover, the “level of nitric oxide in serum versus arthritic control group” value in the assay on serum nitric oxide is “marked reduction; also recorded: significant decrease”. The “level of peroxide in serum versus arthritic control group” value in the assay with serum peroxide is “decrease; also recorded: non-significant reduction”. Moreover, in the assay on rheumatoid factor, the “level of RA factor (rheumatoid factor) in serum versus arthritic control group” value is “marked decrease”. Also, the “histopathology of knee joints (in words) versus arthritic control rats” value in assay [1] was “less infiltration of lymphocytes and minimal bone destruction”. Also, the “histopathology score of knee joints” value in assay [1] (normal control score 0, arthritic control score 4) is 2.
In the case of `C[C@]12C=CC(=O)C=C1CC[C@@H]1[C@@H]2[C@@H](O)C[C@@]2(C)[C@H]1CC[C@]2(O)C(=O)CO` [Prednisolone], the “Human T cell proliferation (IC50 μg/mL)” value in [2] was below 0.62 µg/mL. The IC50 in assay [2] (Homo sapiens, T-cell, read-out: Human T cell proliferation (IC50 μg/mL)) is below 0.62 µg/mL.
With `CC(=O)CCCCn1c(=O)c2c(ncn2C)n(C)c1=O` [pentoxyfillin, reference compound], the “inhibition of TNF-α production (IC50)” value in the assay with TNF-α production worked out at 94.8 µg/mL.
Turning to `[Cl-].c1ccc2c(c1)[I+]c1ccccc1-2` [DPI, reference compound], the “Myeloperoxidase independent Oxidative Burst (IC50 μg/mL) on macrophages” value in [3] turned out to be 1.6 ± 0.1 µg/mL.
In the case of `CC(C)Cc1ccc(C(C)C(=O)O)cc1` (centres unmarked) [Ibuprofen, reference compound], the IC50 in [4] came out at 11.2 ± 1.9 µg/mL; in assay [5], 2.5 ± 0.6 µg/mL; in assay [6], 16.9 ± 2.5 µg/mL.
